Values after ≈ are worked out from the molar mass of the structure shown.
Assays:
[1] = system: E. coli ATCC 25922; assay: In vivo sepsis/peritonitis mouse infection model; conditions: NMRI mice infected IP
[2] = system: E. coli MG1655; assay: Macromolecular incorporation assay; type: cell-based; conditions: 10xMIC, high cell density (OD600 = 0.1, approximately 1×10^8 CFU/ml), AB minimal medium
Experimental: Bacteria were grown in cation adjusted Müller-Hinton broth (MHB-II; Sigma-Aldrich) for MIC or Luria-Bertani (LB) broth at 37°C, supplemented with relevant antibiotics when required. For macromolecular incorporation measurements cells were grown in AB minimal medium ([65]) supplemented with 10 μg/ml thiamine and 0.2% glucose without Cas amino acids. Except for glucosamine incorporation where 0.2% glycerol was used as carbon source. Growth rate of the mcr-1 carrying BW25113 strain was determined in MHB-II on exponentially growing cells by measuring OD600 over time.
Macromolecular synthesis was determined by incorporation of […], 3H-arginine or 3H-glucosamine into DNA, RNA, proteins and cell wall respectively, as described previously ([66]). Briefly, 500 µl samples of exponentially growing MG1655 cells were incubated with 0.375 µCi of the relevant precursor for 2 minutes (uridine), 4 minutes (thymidine and arginine), and 20 minutes (glucosamine). Reactions were stopped by adding 5 ml of ice-cold 5% TCA containing 0.1 M NaCl. Samples were filtered (ADVANTEC®, 25mm, lot no: 80302708) washed twice and dried overnight in scintillation vials (PV1AS, MERIDIAN, BIOTECHNOLOGIES Ltd) before counting on a HINDEX 300SL in 5 ml of scintillation fluid (Scintillation fluid, ULTIMA GOLD™, Perkin Elmer, Inc. LOT No.: 77-18151).

[3] = system: E. coli ATCC25922; assay: Live/Dead staining and phase contrast microscopy; type: cell-based; conditions: 5xMIC, first 30 min of treatment, OD600 = 0.1
Experimental: Exponentially growing E. coli ATCC25922 were treated for 30 min with either colistin (5xMIC) or ChIP (5xMIC) at OD600 = 0.1. An untreated culture was used as a control. 20 ml of treated or untreated culture was concentrated by centrifugation at 5,000 × g for 10 minutes, washed and re-suspended in 10 ml 0.9% NaCl. All samples were incubated at room temperature for 1 hour, mixing every 15 minutes, before washing twice with 10 ml 0.9% NaCl. After washing, the samples were re-suspended in 5 ml 0.9% NaCl, except for ChIP treated samples that were suspended in 1 ml 0.9% NaCl. Sample staining was performed according to the manufacturers instruction (LIVE/DEAD(tm) BacLight(tm) Bacterial Viability Kit, for microscopy & quantitative assays), and incubated for 15 minutes in the dark. 5 μl of the bacterial suspension was placed on an agar pad and analyzed by fluorescence microscopy using an AxioImager Z1 microscope (Carl Zeiss MicroImaging, Inc), with a × 100 objective and a Hamamatsu ORCA-ER C4742-80-12AG camera.

[4] = system: Klebsiella pneumoniae ATCC 13883; conditions: ATCC 13883, reference strain; MHB-II, 37°C, ~5×10^5 CFU/ml, triplicate
[5] = 5 mg/kg IP at 1 and 3 h post infection
[6] = 10 mg/kg IP at 1 and 3 h post infection

Structure (SMILES): CC[C@@H](C)[C@@H](NC(=O)[C@@H](CCCCN)NC(=O)[C@@H](CCCCN)NC(=O)[C@@H](Cc1ccccc1)NC(=O)[C@@H](CC(C)C)NC(=O)[C@@H](CCCCN)NC(=O)[C@H](N)CCCCN)C(=O)N[C@H](CC(C)C)C(=O)N[C@H](CCCNC(=N)N)C(=O)N[C@H](Cc1ccc(O)cc1)C(=O)N[C@H](CC(C)C)C(N)=O [ChIP]
- peritoneal bacterial titers after treatment [1, 5]: 1-5×10^5 CFU/ml
- reduction of peritoneal bacterial titers [1, 5]: 2 logs
- peritoneal CFUs after treatment [1, 6]: 1×10^3 CFU/ml
- reduction of peritoneal CFUs [1, 6]: 4 logs
- incorporation of radioactive labelled precursors into DNA, RNA, protein and peptidoglycan [2]: blocked incorporation
- viability and lysis (SYTO9 / propidium iodide, phase contrast) [3]: loss of viability, but without lysis
- MIC [4]: 4 µg/mL (≈ 2.76 µM)
